Test results as given in ChEMBL document CHEMBL1201862, “PubChem BioAssay data set” (2004).
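In this assay, cells in 96-well plates receive the compound at five concentrations for 48 hours. Endpoints are linearly interpolated between the surrounding concentrations. GI50 marks 50% less growth.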 Calls of active or inactive are those of the source. Rule as the data show it: active = GI50 up to about 1.1 µM and inactive = higher.

How the values were obtained:
Test in all cases: growth of human tumour cells (NCI), 48 h
OVCAR-8 = system: OVCAR-8
NCI-H226 = system: NCI-H226
MDA-MB-435 = system: MDA-MB-435
T47D = system: T47D
HT-29 = system: HT-29
SF-268 = system: SF-268
EKVX = system: EKVX
DU-145 = system: DU-145
NCI-H23 = system: NCI-H23
SW-620 = system: SW-620
SF-539 = system: SF-539
HCC 2998 = system: HCC 2998
M14 = system: M14
SK-OV-3 = system: SK-OV-3
RXF 393 = system: RXF 393
ACHN = system: ACHN
UACC-62 = system: UACC-62
A549 = system: A549
OVCAR-5 = system: OVCAR-5
SNB-75 = system: SNB-75

Measured: GI50

Cc1occc1C(=S)Nc1ccc(Cl)c(C(=O)OC(C(C)C)C(C)C)c1
inactive: OVCAR-8 13.3 µM | NCI-H226 15.2 µM | MDA-MB-435 15.1 µM | T47D 4.49 µM | HT-29 14.1 µM | SF-268 18.5 µM | EKVX 8 µM | DU-145 13.7 µM | NCI-H23 8.15 µM | SW-620 16.6 µM | SF-539 16.4 µM | HCC 2998 9.23 µM | M14 12.7 µM | SK-OV-3 18.4 µM | RXF 393 13.3 µM | ACHN 12.1 µM | UACC-62 10.8 µM | A549 11.6 µM | OVCAR-5 22.6 µM

NC1=NC(c2ccc(Cl)cc2)N(c2ccc(S(N)(=O)=O)cc2)C(N)=N1 (centres undefined)
inactive: OVCAR-8 > 100 µM | SNB-75 > 100 µM | NCI-H226 > 100 µM | MDA-MB-435 > 100 µM | T47D > 100 µM | HT-29 > 100 µM | SF-268 > 100 µM | EKVX > 100 µM | DU-145 > 100 µM | NCI-H23 > 100 µM | SW-620 > 100 µM | SF-539 > 100 µM | M14 > 100 µM | SK-OV-3 > 100 µM | RXF 393 > 100 µM | ACHN > 100 µM | UACC-62 > 100 µM | A549 > 100 µM | OVCAR-5 > 100 µM

C(=N\c1cnc2ccccc2c1)/c1ccc2ccccc2n1
inactive: OVCAR-8 > 100 µM | SNB-75 > 100 µM | NCI-H226 > 100 µM | MDA-MB-435 > 100 µM | T47D > 100 µM | HT-29 > 100 µM | SF-268 > 100 µM | EKVX > 100 µM | DU-145 > 100 µM | NCI-H23 > 100 µM | SW-620 64.1 µM | SF-539 > 100 µM | M14 > 100 µM | SK-OV-3 > 100 µM | RXF 393 > 100 µM | ACHN > 100 µM | UACC-62 > 100 µM | A549 > 100 µM | OVCAR-5 > 100 µM

Cc1nnc2n1N=C(c1cc(F)c(Cl)cc1Cl)/C(=C/c1ccc(Cl)cc1)S2
inactive: OVCAR-8 16.1 µM | NCI-H226 23.2 µM | MDA-MB-435 13.6 µM | T47D 34 µM | HT-29 11.7 µM | SF-268 41.8 µM | EKVX 9.42 µM | DU-145 17.1 µM | NCI-H23 14.5 µM | SW-620 37.7 µM | SF-539 25.9 µM | HCC 2998 13.4 µM | M14 17.9 µM | SK-OV-3 43.4 µM | RXF 393 17.2 µM | ACHN 16.5 µM | UACC-62 15 µM | A549 18 µM | OVCAR-5 6.46 µM

O=c1[nH][nH]c(=O)n1Cc1ccccc1Cn1c(=O)[nH][nH]c1=O
inactive: OVCAR-8 > 100 µM | SNB-75 > 100 µM | NCI-H226 > 100 µM | MDA-MB-435 > 100 µM | T47D > 100 µM | HT-29 > 100 µM | SF-268 > 100 µM | EKVX > 100 µM | DU-145 > 100 µM | NCI-H23 > 100 µM | SW-620 > 100 µM | SF-539 > 100 µM | M14 > 100 µM | SK-OV-3 > 100 µM | RXF 393 > 100 µM | ACHN > 100 µM | UACC-62 > 100 µM | A549 > 100 µM | OVCAR-5 > 100 µM

CC1=CC[C@H](C[C@H](C#CCCCC2OCCO2)O[Si](C(C)C)(C(C)C)C(C)C)C(=O)CC1
inactive: OVCAR-8 > 100 µM | SNB-75 > 100 µM | NCI-H226 > 100 µM | MDA-MB-435 > 100 µM | T47D > 100 µM | HT-29 > 100 µM | SF-268 > 100 µM | EKVX > 100 µM | DU-145 > 100 µM | NCI-H23 > 100 µM | SW-620 > 100 µM | HCC 2998 > 100 µM | M14 > 100 µM | SK-OV-3 > 100 µM | RXF 393 > 100 µM | ACHN > 100 µM | UACC-62 > 100 µM | A549 > 100 µM | OVCAR-5 > 100 µM

COC(=O)c1cc2c(c(C(=O)OC)c1)CCC2
inactive: OVCAR-8 > 100 µM | SNB-75 34.8 µM | MDA-MB-435 > 100 µM | T47D 63.5 µM | HT-29 40.6 µM | SF-268 > 100 µM | EKVX > 100 µM | DU-145 > 100 µM | NCI-H23 > 100 µM | SW-620 > 100 µM | SF-539 > 100 µM | HCC 2998 > 100 µM | M14 > 100 µM | SK-OV-3 > 100 µM | RXF 393 82.6 µM | ACHN > 100 µM | A549 > 100 µM | OVCAR-5 > 100 µM

Cc1ccc(S(=O)(=O)N/N=C/C2(c3ccccc3)c3ccccc3-c3ccccc32)cc1
inactive: OVCAR-8 8.97 µM | NCI-H226 14.7 µM | MDA-MB-435 11 µM | T47D 2.09 µM | HT-29 12.5 µM | SF-268 14 µM | EKVX 8.95 µM | DU-145 12.1 µM | NCI-H23 15.5 µM | SW-620 15 µM | SF-539 15.8 µM | HCC 2998 13.3 µM | M14 10.9 µM | SK-OV-3 15.4 µM | RXF 393 13 µM | ACHN 4.94 µM | UACC-62 11.2 µM | A549 5.74 µM | OVCAR-5 12.4 µM

CCCc1c(O)nc(Nc2nc3ccccc3[nH]2)[nH]c1=O
inactive: OVCAR-8 > 100 µM | SNB-75 > 100 µM | NCI-H226 > 100 µM | MDA-MB-435 > 100 µM | T47D > 100 µM | HT-29 > 100 µM | SF-268 > 100 µM | EKVX > 100 µM | DU-145 > 100 µM | NCI-H23 > 100 µM | SW-620 > 100 µM | SF-539 > 100 µM | M14 > 100 µM | SK-OV-3 > 100 µM | RXF 393 > 100 µM | ACHN > 100 µM | UACC-62 > 100 µM | A549 > 100 µM | OVCAR-5 > 100 µM

CC1(C)N=C(N)N=C(N)N1c1cccc(OCc2cccc([N+](=O)[O-])c2)c1
inactive: OVCAR-8 99.8 µM | SNB-75 > 57 µM | NCI-H226 > 100 µM | MDA-MB-435 17.7 µM | T47D 38.3 µM | HT-29 6.03 µM | SF-268 9.75 µM | EKVX > 78.3 µM | DU-145 > 38.5 µM | NCI-H23 7.26 µM | SW-620 > 85.9 µM | SF-539 17.6 µM | M14 51.8 µM | SK-OV-3 > 100 µM | RXF 393 > 100 µM | ACHN > 100 µM | UACC-62 6.11 µM | A549 4.18 µM | OVCAR-5 > 30.6 µM
